Results published in the supplement of paper PMC4862054.

Each compound was assayed on MDA-MB-231 (assay: normalised viability (% of control), CellTiter-Blue; higher = more viable cells (100 = DMSO, 0 = benzethonium chloride kill control)). Conditions: incubation time: 72 h.
Outline: (§1)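 Breast cancer cell lines were treated for 72 h in 384-well format and measured by CellTiter-Blue fluorescence at 560/590 nm. Results were normalised per plate to vehicle (100) and a positive kill control (0). The entry is normalised viability at a single listed concentration of the series.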

Q: How did the normalised viability turn out when COc1c(C)cnc(Cn2cnc3c(Cl)nc(N)nc32)c1C [BIIB021] (1 nM) was run?
A: 76.3%

Q: C[C@@]1(C(=O)Nc2ccc(F)nc2)CCCN1c1nc(Nc2cc(C3CC3)n[nH]2)c2cccn2n1 (1 nM) was tested. Which normalised viability did it give?
A: 115%

Q: With O=c1[nH]c(=O)n([C@H]2C[C@H](O)[C@@H](CO)O2)cc1F [Floxuridine] (1 nM) as the compound, how does the normalised viability read?
A: 99%

Q: With O=c1[nH]cc(F)c(=O)[nH]1 [Fluorouracil] (1 nM) as the compound, how does the normalised viability read?
A: 112%

Q: Which normalised viability does the source give for CS(=O)(=O)OCCCCOS(C)(=O)=O [Busulfan] (10 nM) here?
A: 112%

Q: CCOc1cc2ncc(C#N)c(Nc3ccc(OCc4ccccn4)c(Cl)c3)c2cc1NC(=O)/C=C/CN(C)C [Neratinib] (0.1 nM) was tested. Which normalised viability did it give?
A: 99.6%

Each compound was assayed on HCC1937 in the same assay as above. Conditions: incubation time: 72 h.
Outline: as §1

Q: Which normalised viability does the source give for COc1c(C)cnc(Cn2cnc3c(Cl)nc(N)nc32)c1C [BIIB021] (1 nM) here?
A: 93.4%

Q: For C[C@@]1(C(=O)Nc2ccc(F)nc2)CCCN1c1nc(Nc2cc(C3CC3)n[nH]2)c2cccn2n1 (1 nM), which normalised viability is on record?
A: 118%

Q: How did the normalised viability turn out when O=c1[nH]c(=O)n([C@H]2C[C@H](O)[C@@H](CO)O2)cc1F [Floxuridine] (1 nM) was run?
A: 89.2%

Q: Which normalised viability does the source give for O=c1[nH]cc(F)c(=O)[nH]1 [Fluorouracil] (1 nM) here?
A: 90.6%

Q: CS(=O)(=O)OCCCCOS(C)(=O)=O [Busulfan] (10 nM) was tested. Which normalised viability did it give?
A: 78.8%

Q: CCOc1cc2ncc(C#N)c(Nc3ccc(OCc4ccccn4)c(Cl)c3)c2cc1NC(=O)/C=C/CN(C)C [Neratinib] (0.1 nM) was tested. Which normalised viability did it give?
A: 82.6%

What follows are compounds tested on MFM-223 in the same assay as above. Conditions: incubation time: 72 h.
Outline: as §1

Q: COc1c(C)cnc(Cn2cnc3c(Cl)nc(N)nc32)c1C [BIIB021] (1 nM) was tested. Which normalised viability did it give?
A: 80.8%

Q: With C[C@@]1(C(=O)Nc2ccc(F)nc2)CCCN1c1nc(Nc2cc(C3CC3)n[nH]2)c2cccn2n1 (1 nM) as the compound, how does the normalised viability read?
A: 96.1%

Q: With O=c1[nH]c(=O)n([C@H]2C[C@H](O)[C@@H](CO)O2)cc1F [Floxuridine] (1 nM) as the compound, how does the normalised viability read?
A: 103%

Q: With O=c1[nH]cc(F)c(=O)[nH]1 [Fluorouracil] (1 nM) as the compound, how does the normalised viability read?
A: 106%

Q: Which normalised viability does the source give for CS(=O)(=O)OCCCCOS(C)(=O)=O [Busulfan] (10 nM) here?
A: 88.7%

Q: Which normalised viability does the source give for CCOc1cc2ncc(C#N)c(Nc3ccc(OCc4ccccn4)c(Cl)c3)c2cc1NC(=O)/C=C/CN(C)C [Neratinib] (0.1 nM) here?
A: 99.2%

The compounds below were run on CAL-120 in the same assay as above. Conditions: incubation time: 72 h.
Outline: as §1

Q: With COc1c(C)cnc(Cn2cnc3c(Cl)nc(N)nc32)c1C [BIIB021] (1 nM) as the compound, how does the normalised viability read?
A: 76.8%

Q: C[C@@]1(C(=O)Nc2ccc(F)nc2)CCCN1c1nc(Nc2cc(C3CC3)n[nH]2)c2cccn2n1 (1 nM) was tested. Which normalised viability did it give?
A: 90.9%

Q: O=c1[nH]c(=O)n([C@H]2C[C@H](O)[C@@H](CO)O2)cc1F [Floxuridine] (1 nM) was tested. Which normalised viability did it give?
A: 100%

Q: How did the normalised viability turn out when O=c1[nH]cc(F)c(=O)[nH]1 [Fluorouracil] (1 nM) was run?
A: 103%

Q: With CS(=O)(=O)OCCCCOS(C)(=O)=O [Busulfan] (10 nM) as the compound, how does the normalised viability read?
A: 112%

Q: With CCOc1cc2ncc(C#N)c(Nc3ccc(OCc4ccccn4)c(Cl)c3)c2cc1NC(=O)/C=C/CN(C)C [Neratinib] (0.1 nM) as the compound, how does the normalised viability read?
A: 86%

These compounds were tested on HDQ-P1 in the same assay as above. Conditions: incubation time: 72 h.
Outline: as §1

Q: Which normalised viability does the source give for COc1c(C)cnc(Cn2cnc3c(Cl)nc(N)nc32)c1C [BIIB021] (1 nM) here?
A: 86.4%

Q: For C[C@@]1(C(=O)Nc2ccc(F)nc2)CCCN1c1nc(Nc2cc(C3CC3)n[nH]2)c2cccn2n1 (1 nM), which normalised viability is on record?
A: 95.4%

Q: O=c1[nH]c(=O)n([C@H]2C[C@H](O)[C@@H](CO)O2)cc1F [Floxuridine] (1 nM) was tested. Which normalised viability did it give?
A: 108%

Q: For O=c1[nH]cc(F)c(=O)[nH]1 [Fluorouracil] (1 nM), which normalised viability is on record?
A: 110%

Q: For CS(=O)(=O)OCCCCOS(C)(=O)=O [Busulfan] (10 nM), which normalised viability is on record?
A: 106%

Q: Which normalised viability does the source give for CCOc1cc2ncc(C#N)c(Nc3ccc(OCc4ccccn4)c(Cl)c3)c2cc1NC(=O)/C=C/CN(C)C [Neratinib] (0.1 nM) here?
A: 86.8%

These compounds were tested on Hs578T in the same assay as above. Conditions: incubation time: 72 h.
Outline: as §1

Q: COc1c(C)cnc(Cn2cnc3c(Cl)nc(N)nc32)c1C [BIIB021] (1 nM) was tested. Which normalised viability did it give?
A: 105%

Q: C[C@@]1(C(=O)Nc2ccc(F)nc2)CCCN1c1nc(Nc2cc(C3CC3)n[nH]2)c2cccn2n1 (1 nM) was tested. Which normalised viability did it give?
A: 104%

Q: How did the normalised viability turn out when O=c1[nH]c(=O)n([C@H]2C[C@H](O)[C@@H](CO)O2)cc1F [Floxuridine] (1 nM) was run?
A: 130%

Q: How did the normalised viability turn out when O=c1[nH]cc(F)c(=O)[nH]1 [Fluorouracil] (1 nM) was run?
A: 122%

Q: With CS(=O)(=O)OCCCCOS(C)(=O)=O [Busulfan] (10 nM) as the compound, how does the normalised viability read?
A: 92%

Q: How did the normalised viability turn out when CCOc1cc2ncc(C#N)c(Nc3ccc(OCc4ccccn4)c(Cl)c3)c2cc1NC(=O)/C=C/CN(C)C [Neratinib] (0.1 nM) was run?
A: 99.7%

Each compound was assayed on MDA-MB-453 in the same assay as above. Conditions: incubation time: 72 h.
Outline: as §1

Q: COc1c(C)cnc(Cn2cnc3c(Cl)nc(N)nc32)c1C [BIIB021] (1 nM) was tested. Which normalised viability did it give?
A: 93.9%

Q: Which normalised viability does the source give for C[C@@]1(C(=O)Nc2ccc(F)nc2)CCCN1c1nc(Nc2cc(C3CC3)n[nH]2)c2cccn2n1 (1 nM) here?
A: 98.1%

Q: O=c1[nH]c(=O)n([C@H]2C[C@H](O)[C@@H](CO)O2)cc1F [Floxuridine] (1 nM) was tested. Which normalised viability did it give?
A: 108%

Q: O=c1[nH]cc(F)c(=O)[nH]1 [Fluorouracil] (1 nM) was tested. Which normalised viability did it give?
A: 115%

Q: How did the normalised viability turn out when CS(=O)(=O)OCCCCOS(C)(=O)=O [Busulfan] (10 nM) was run?
A: 117%

Q: Which normalised viability does the source give for CCOc1cc2ncc(C#N)c(Nc3ccc(OCc4ccccn4)c(Cl)c3)c2cc1NC(=O)/C=C/CN(C)C [Neratinib] (0.1 nM) here?
A: 105%

What follows are compounds tested on MDA-MB-436 in the same assay as above. Conditions: incubation time: 72 h.
Outline: as §1

Q: For COc1c(C)cnc(Cn2cnc3c(Cl)nc(N)nc32)c1C [BIIB021] (1 nM), which normalised viability is on record?
A: 102%

Q: C[C@@]1(C(=O)Nc2ccc(F)nc2)CCCN1c1nc(Nc2cc(C3CC3)n[nH]2)c2cccn2n1 (1 nM) was tested. Which normalised viability did it give?
A: 122%

Q: O=c1[nH]c(=O)n([C@H]2C[C@H](O)[C@@H](CO)O2)cc1F [Floxuridine] (1 nM) was tested. Which normalised viability did it give?
A: 112%

Q: With O=c1[nH]cc(F)c(=O)[nH]1 [Fluorouracil] (1 nM) as the compound, how does the normalised viability read?
A: 94.8%

Q: Which normalised viability does the source give for CS(=O)(=O)OCCCCOS(C)(=O)=O [Busulfan] (10 nM) here?
A: 105%

Q: Which normalised viability does the source give for CCOc1cc2ncc(C#N)c(Nc3ccc(OCc4ccccn4)c(Cl)c3)c2cc1NC(=O)/C=C/CN(C)C [Neratinib] (0.1 nM) here?
A: 123%

Each compound was assayed on DU-4475 in the same assay as above. Conditions: incubation time: 72 h.
Outline: as §1

Q: For COc1c(C)cnc(Cn2cnc3c(Cl)nc(N)nc32)c1C [BIIB021] (1 nM), which normalised viability is on record?
A: 87.7%

Q: With C[C@@]1(C(=O)Nc2ccc(F)nc2)CCCN1c1nc(Nc2cc(C3CC3)n[nH]2)c2cccn2n1 (1 nM) as the compound, how does the normalised viability read?
A: 105%

Q: With O=c1[nH]c(=O)n([C@H]2C[C@H](O)[C@@H](CO)O2)cc1F [Floxuridine] (1 nM) as the compound, how does the normalised viability read?
A: 104%

Q: With O=c1[nH]cc(F)c(=O)[nH]1 [Fluorouracil] (1 nM) as the compound, how does the normalised viability read?
A: 107%

Q: CS(=O)(=O)OCCCCOS(C)(=O)=O [Busulfan] (10 nM) was tested. Which normalised viability did it give?
A: 104%

Q: With CCOc1cc2ncc(C#N)c(Nc3ccc(OCc4ccccn4)c(Cl)c3)c2cc1NC(=O)/C=C/CN(C)C [Neratinib] (0.1 nM) as the compound, how does the normalised viability read?
A: 107%

These compounds were tested on CAL-51 in the same assay as above. Conditions: incubation time: 72 h.
Outline: as §1

Q: How did the normalised viability turn out when COc1c(C)cnc(Cn2cnc3c(Cl)nc(N)nc32)c1C [BIIB021] (1 nM) was run?
A: 101%
